Literature values, collected in patent US20110077395A1, “INHIBITORS OF 11-BETA HYDROXYSTEROID DEHYDROGENASE TYPE I” (Bristol-Myers Squibb Company, priority 2005, published 2011).

System: hepatic glucose production
Conditions: mildly overweight individuals with type 2 diabetes, seven days, versus placebo

In the case of `CC1(C)[C@@H](OC(=O)CCC(=O)O)CC[C@]2(C)[C@H]3C(=O)C=C4[C@@H]5C[C@@](C)(C(=O)O)CC[C@]5(C)CC[C@@]4(C)[C@]3(C)CC[C@@H]12` [carbenoxolone], the hepatic glucose production is listed as “decrease in hepatic glucose production”.
